Source: patent publication US11413278B2, “Compounds and methods for promoting stress resistance” (priority 2015, dated 2022)
Like-named read-outs stand apart in the source and are kept apart here.

Experiments:
WI-38 cells = test: CdCl2 (cadmium) resistance assay; assay type: cell-based, human; details: for fold induction at 10 µM: Homo sapiens, 12 h, normalized ATP measurement; for Assay 4: H2O2- & Cd-resistant / Assay 2: Cadmium-resistant: YES/NO; for Assay 2: Cadmium-resistant: * indicates partial
Method in brief: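 Resistance to CdCl2 or MMS stress (12 h exposure) was scored in WI-38 fibroblasts pretreated with compound at 0.25–20 μM final, five doses, technical triplicates. MMS plates had compound added 24 h before MMS, after a shift to serum-free DMEM+2% BSA. Significance came from a global variance t-test over two independent runs.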

FOXO3 = test: qPCR analysis of FOXO3-regulated genes; assay type: cell-based, human; details: for fold induction at 10 µM: Homo sapiens; for K = Sestrin induction: score
Method in brief: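 FOXO3 target-gene expression quantified by qPCR normalised to B2M, PPIA and GAPDH, in WI-38 cells after 24 h exposure to 10 μM compound. Some runs used cells first transfected 36 h with 10 nM FOXO3 or NRF2 siRNA and replated ~24 h before dosing.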

[1] = Summary score for characterization of 38 core set hits; details: for D = Triple resistant: 2-point score, multiplex resistance (cadmium, MMS, H2O2); for S = Sum of Negative scores: human; for C = H2O2- & Cd-resistant: score, resistance to both H2O2 and cadmium
Method in brief: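 Each score sums results of individual assays on H2O2-resistance screen hits. Nematode lifespan assays were run in 4 to 6 independent trials and scored up to 2. Key phenotypes such as multiplex resistance, FOXO3/NRF2 activation and mTOR down-regulation were weighted at 2 points, with a deduction for human-cell toxicity.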

[2] = Exp. 1, WI-38 cells, read-out: Exp. 1, under Cd2Cl2 stress treatment, at 10 uM (fold change)
[3] = Exp. 2, WI-38 cells, read-out: Exp. 2, under Cd2Cl2 stress treatment, at 10 uM (fold change)
[4] = WI-38 cells, 10 μM, both stressors
[5] = score in summary of 38 core set hits
[6] = 24 h, Assay 10(m), at 10 uM, qPCR, read-out: Induction of FOXO3-regulated genes: GADD45A normalized fold-change
[7] = 10 μM, 24 hrs, WI-38 cells, qPCR, normalized to B2M, n = 4, read-out: GADD45A expression, normalized fold change (FOXO3-regulated gene)
[8] = WI-38 cells, 10 μM, 24 hrs, n=4, qPCR normalized by B2M, read-out: DDB1 Normalized fold change
[9] = WI-38 cells, 10 μM, 24 hrs, n=4, qPCR normalized by B2M, read-out: GADD45A Normalized fold change
[10] = WI-38 cells, 10 μM, 24 hrs, n=4, qPCR normalized by B2M, read-out: SESN1 Normalized fold change
[11] = fold change, qPCR, WI-38 cells, 10 μM, 24 hrs, read-out: Summary of effects on FOXO3-regulated genes: GADD45A
[12] = qPCR, WI-38 cells, 10 μM, n=4, 24 hrs, normalized by B2M, read-out: CAT Normalized fold change
[13] = qPCR, WI-38 cells, 10 μM, n=4, 24 hrs, normalized by B2M, read-out: SOD2 Normalized fold change
[14] = qPCR, WI-38 cells, 10 μM, n=4, 24 hrs, normalized by B2M, read-out: TXNIP Normalized fold change

| Structure (SMILES) | CdCl2-resistant (WI-38 cells) | H2O2- & CdCl2-resistant (WI-38 cells) | fold induction at 10 µM (WI-38 cells; [2]) | fold induction at 10 µM (WI-38 cells; [3]) | CdCl2-resistant (WI-38 cells; WI-38 cells, 10 μM) | H2O2- & CdCl2-resistant (WI-38 cells; [4]) | Assay 4: H2O2- & Cd-resistant (WI-38 cells) | Assay 2: Cadmium-resistant (WI-38 cells) | A = Cadmium resistant (WI-38 cells; [5]) | A = Cadmium resistant (WI-38 cells; summary score) | C = H2O2- & Cd-resistant (WI-38 cells; summary score) | E = Potential FOXO3 Activation (FOXO3; 2-point score) | fold induction at 10 µM (FOXO3; [6]) | fold induction at 10 µM (FOXO3; [7]) | fold induction at 10 µM (FOXO3; [8]) | K = Sestrin induction (FOXO3) | E = Potential FOXO3 Activation (FOXO3; summary score) | D = Triple resistant [1] | S = Sum of Negative scores [1] | C = H2O2- & Cd-resistant [1] | also measured |
| --- | --- | --- | --- | --- | --- | --- | --- | --- | --- | --- | --- | --- | --- | --- | --- | --- | --- | --- | --- | --- | --- |
| CC(C)(C)c1ccc(OCC(=O)Nc2ccc3c4c(cccc24)C(=O)NC3=O)cc1 [O22] | YES | YES | 5.61 | 14.7 | YES | YES | YES | YES | 1 | 1 | 1 | 0 | 1.23 | 1.23 | 1.04 | 0 | 0 | 2 | 0 | 1 | fold induction at 10 µM (FOXO3; [9]): 1.23; fold induction at 10 µM (FOXO3; [10]): 1.29; fold induction at 10 µM (FOXO3; [11]): 1.23; fold induction at 10 µM (FOXO3; [12]): 1.04; fold induction at 10 µM (FOXO3; [13]): 1.02; fold induction at 10 µM (FOXO3; [14]): 0.742 |
| COc1cccc(/C=C2\CN(C)C/C(=C\c3cccc(OC)c3OC)C2=O)c1OC [O23] | – | – | 0.69 | 0.64 | – | – | YES | YES | 0 | 1 | 1 | 2 | 7.22 | 7.22 | 1.26 | 0 | 2 | 0 | 1 | 0 | Induction of at least two of five FOXO3-regulated genes (SOD2, GADD45A, CAT, DDB1, TXNIP) (FOXO3; 10 μM, 24 hrs, WI-38): induce FOXO3-regulated genes; SOD2 expression, normalized fold change (FOXO3-regulated gene) (FOXO3; 10 μM, 24 hrs, WI-38 cells, qPCR, normalized to B2M, n = 4): SOD2 2.04 fold; Potential FOXO3 Activation (>=2 target genes induced, by >=1.5-fold) (FOXO3; Assay 11(n)): YES; fold induction at 10 µM (FOXO3; 24 h, Assay 10(m), at 10 uM, qPCR, read-out: Induction of FOXO3-regulated genes: SOD2 normalized fold-change): 2.04; fold induction at 10 µM (FOXO3; 24 h, Assay 10(m), at 10 uM, qPCR, read-out: Induction of FOXO3-regulated genes: TXNIP normalized fold-change): 0.07; fold induction at 10 µM (FOXO3; 10 μM, 24 hrs, WI-38 cells, qPCR, normalized to B2M, n = 4, read-out: TXNIP expression, normalized fold change (FOXO3-regulated gene)): 0.07; fold induction at 10 µM (FOXO3; [9]): 7.22; fold induction at 10 µM (FOXO3; [10]): 0.799; fold induction at 10 µM (FOXO3; [11]): 7.22; fold induction at 10 µM (FOXO3; fold change, qPCR, WI-38 cells, 10 μM, 24 hrs, read-out: Summary of effects on FOXO3-regulated genes: TXNIP): 0.07; fold induction at 10 µM (FOXO3; [12]): 0.89; fold induction at 10 µM (FOXO3; [13]): 2.04; fold induction at 10 µM (FOXO3; [14]): 0.071; Summary of effects on FOXO3-regulated genes: SOD2 (FOXO3; fold change, qPCR, WI-38 cells, 10 μM, 24 hrs): SOD2 2.04 |
| Oc1ccccc1-c1noc(-c2ccccc2O)n1 [O27] | YES | YES | – | – | YES | YES | YES | YES | 1 | 1 | 1 | 0 | – | – | – | 1 | 0 | 0 | 2 | 1 | – |
